Data as given in the supplement of paper PMC10307832.

How the values were obtained:
Assay in all cases: relative viability (nuclei count vs DMSO), 5 days (fraction); higher = more cells survive
[1] = compound: CNC(=O)c1ccccc1Sc1ccc2c(/C=C/c3ccccn3)n[nH]c2c1 [Axitinib] + O=C(CCCCCCC(=O)Nc1ccccc1)NO [Vorinostat] (partner 1 µM)
How it was run: (§1)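 One day after seeding in 1536-well plates, lung cancer cell lines were dosed by pin tool. Dosing was either single-drug or a fixed anchor-drug dose plus five library-drug doses (not always all listed) in √10 steps. After 5 days, nuclei were stained in one fix-and-stain step and counted on 4× images, and relative viability is the nuclei count of treated wells over that of vehicle wells, given as the median of duplicate plates.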

[2] = compound: CNC(=O)c1ccccc1Sc1ccc2c(/C=C/c3ccccn3)n[nH]c2c1 [Axitinib] + CC(=O)Nc1cccc(-n2c(=O)n(C3CC3)c(=O)c3c(Nc4ccc(I)cc4F)n(C)c(=O)c(C)c32)c1 [Trametinib] (partner 0.02 µM)
How it was run: as §1

[3] = compound: Nc1nc(Nc2ccc3c(c2)CC[C@@H](N2CCCC2)CC3)nn1-c1cc2c(nn1)-c1ccccc1CCC2 [Bemcentinib] + Cc1nc(Nc2ncc(C(=O)Nc3c(C)cccc3Cl)s2)cc(N2CCN(CCO)CC2)n1 [Dasatinib] (partner 0.075 µM)
How it was run: as §1

[4] = compound: CC1=CC=C(C=C1)C(=O)CN2C3=C(CCCC3)SC2=N [Pifithrin_alpha] + Cc1nc(NC(=O)N2CCC[C@H]2C(N)=O)sc1-c1ccnc(C(C)(C)C(F)(F)F)c1 [Alpelisib] (partner 2 µM)
How it was run: as §1

| Cell Line | relative viability ([1]; first compound 0.005 µM) | relative viability ([1]; first compound 0.01581 µM) | relative viability ([1]; first compound 0.05 µM) | relative viability ([1]; first compound 0.1581 µM) | relative viability ([1]; first compound 0.5 µM) | relative viability ([2]; first compound 0.005 µM) | relative viability ([2]; first compound 0.01581 µM) | relative viability ([2]; first compound 0.05 µM) | relative viability ([2]; first compound 0.1581 µM) | relative viability ([2]; first compound 0.5 µM) | relative viability ([3]; first compound 0.04 µM) | relative viability ([3]; first compound 0.1265 µM) | relative viability ([3]; first compound 0.4 µM) | relative viability ([3]; first compound 1.265 µM) | relative viability ([3]; first compound 4 µM) | relative viability ([4]; first compound 1 µM) | relative viability ([4]; first compound 3.162 µM) | relative viability ([4]; first compound 10 µM) | relative viability ([4]; first compound 100 µM) | relative viability ([4]; first compound 31.62 µM) |
| --- | --- | --- | --- | --- | --- | --- | --- | --- | --- | --- | --- | --- | --- | --- | --- | --- | --- | --- | --- | --- |
| LU99A | 0.514 | 0.472 | 0.56 | 0.465 | 0.409 | 0.547 | 0.463 | 0.534 | 0.541 | 0.511 | 0.489 | 0.568 | 0.519 | 0.661 | 0.573 | 0.503 | 0.576 | 0.543 | 0.646 | – |
| NCI-H1437 | 0.942 | 0.85 | 0.86 | 0.876 | 0.78 | 0.634 | 0.488 | 0.557 | 0.554 | 0.519 | 0.365 | 0.421 | 0.416 | 0.438 | 0.38 | 1.12 | 1.01 | 0.933 | 0.989 | 0.749 |
| NCI-H460 | 0.758 | 0.772 | 0.734 | 0.732 | 0.914 | 0.165 | 0.177 | 0.188 | 0.297 | 0.253 | 0.452 | 0.534 | 0.562 | 0.535 | 0.551 | 0.529 | 0.57 | 0.384 | 0.305 | – |
| NCI-H1395 | 0.706 | 0.529 | 0.709 | 0.639 | 0.649 | 1 | 0.789 | 0.941 | 0.911 | 1.02 | 0.393 | 0.392 | 0.439 | 0.364 | 0.396 | – | 1.06 | 1.13 | 0.958 | 0.55 |
| NCI-H2085 | 0.823 | 0.788 | 0.883 | 0.758 | 0.812 | 0.561 | 0.496 | 0.56 | 0.546 | 0.548 | 0.224 | 0.195 | 0.258 | 0.256 | 0.294 | 0.907 | 0.972 | 0.849 | 0.808 | 0.706 |
| NCI-H1703 | – | – | – | – | – | – | – | – | – | – | – | – | – | – | – | 0.317 | 0.306 | 0.252 | 0.377 | 0.366 |
| HCC-366 | 0.666 | 0.414 | 0.447 | 0.333 | 0.395 | 0.415 | 0.417 | 0.391 | 0.359 | 0.333 | 0.544 | 0.621 | 0.621 | 0.852 | 0.659 | 0.282 | 0.3 | 0.329 | 0.234 | – |
| NCI-H1648 | 0.37 | 0.514 | 0.316 | 0.34 | 0.363 | 0.622 | 0.553 | 0.335 | 0.525 | 0.509 | – | – | – | – | – | – | – | – | – | – |
| NCI-H322M | 0.908 | 0.836 | 0.827 | 0.767 | 0.962 | 0.577 | 0.458 | 0.48 | 0.467 | 0.486 | 0.229 | 0.279 | 0.251 | 0.267 | 0.258 | 0.777 | 0.651 | 0.802 | 0.87 | 0.581 |
| 201T | 0.995 | 0.946 | 0.969 | 0.9 | 0.951 | 0.715 | 0.682 | 0.711 | 0.713 | 0.732 | 0.559 | 0.676 | 0.591 | 0.613 | 0.57 | 1.04 | 0.83 | 0.792 | 0.79 | 0.81 |
| SK-LU-1 | 0.805 | 0.835 | 0.808 | 0.817 | 0.959 | 0.515 | 0.631 | 0.478 | 0.412 | 0.459 | 0.181 | 0.201 | 0.197 | 0.191 | 0.155 | 0.828 | 1.19 | 1.13 | 1.16 | 0.766 |
| ChaGo-K-1 | 0.727 | 0.754 | 0.797 | 0.746 | 0.737 | 0.872 | 0.874 | 0.902 | 0.858 | 0.887 | 0.591 | 0.614 | 0.636 | 0.496 | 0.481 | – | – | – | – | – |
| Calu-6 | – | – | – | – | – | – | – | – | – | – | – | – | – | – | – | 0.884 | 0.918 | 0.961 | 0.857 | 0.622 |
| EBC-1 | – | – | – | – | – | – | – | – | – | – | – | – | – | – | – | 0.821 | 0.834 | 0.683 | 0.602 | 0.558 |
| NCI-H1650 | 0.699 | 0.616 | 0.694 | 0.5 | 0.754 | 0.613 | 0.469 | 0.682 | 0.648 | 0.749 | 0.344 | 0.382 | 0.347 | 0.346 | 0.321 | – | – | – | – | – |
| IA-LM | 1.02 | 1.02 | 0.974 | 0.934 | 0.973 | – | – | – | – | – | – | – | – | – | – | 0.917 | 0.757 | 0.356 | 0.423 | 0.442 |
| NCI-H2342 | 0.98 | 0.784 | 0.666 | 0.665 | 0.72 | 0.789 | 0.751 | 0.703 | 0.881 | 0.794 | 0.316 | 0.318 | 0.313 | 0.264 | 0.308 | – | – | – | – | – |
| ABC-1 | 1.15 | – | 1.13 | 1.47 | 1.34 | – | – | – | – | – | 0.423 | 0.512 | 0.59 | 0.553 | 0.667 | 0.945 | 0.983 | 0.732 | 0.661 | 0.682 |
| SW 900 | 0.51 | – | 0.434 | 0.472 | 0.829 | 0.915 | – | 0.926 | 0.687 | 0.943 | 0.587 | 0.672 | 0.586 | 0.493 | 0.563 | – | – | – | – | – |
| NCI-H1623 | – | – | – | – | – | – | – | – | – | – | 0.51 | 0.504 | 0.528 | 0.639 | 0.473 | – | – | – | – | – |
| A549 | – | – | – | – | – | – | – | – | – | – | – | – | – | – | – | 0.895 | 0.777 | 0.644 | 0.799 | 0.698 |
| NCI-H1792 | – | – | – | – | – | 0.618 | 0.363 | 0.499 | 0.494 | 0.498 | 0.859 | 0.956 | 1.17 | 0.91 | 0.873 | 0.688 | 0.67 | 0.485 | 0.657 | 0.469 |
